Data: ChEMBL document CHEMBL1122995, “1-[3-(Diarylamino)propyl]piperidines and related compounds, potential antipsychotic agents with low cataleptogenic profiles” (J Med Chem, 1985)
“And” between values parts separate entries of the source, which are not always exact repeats. Equal values may be shown once.

Tests used:
[1] = organism: Rattus norvegicus; experiment: Effective dose determined by suppression of high base-line self-stimulation in adult male hooded rats; assay type: functional
[2] = system: Mus musculus; experiment: Lowest active dose for the inhibition of locomotor screen falloff test, ip; assay type: functional
[3] = organism: Rattus norvegicus; experiment: Effective dose determined by catalepsy test in rat; assay type: functional
[4] = target: Dopamine receptor; experiment: Inhibition of [3H]haloperidol binding to dopamine receptors in rat striatal membranes.
[5] = organism: Rattus norvegicus; experiment: Effective dose against [3H]haloperidol binding in rat striatal membranes; assay type: functional; conditions: Striatum, Membrane
[6] = target: Dopamine receptor (Rattus norvegicus) (UniProt P25115+P19020+P30729+P18901+P61169); experiment: Inhibition of [3H]haloperidol binding to dopamine receptors in rat striatal membranes at 10e-8 M.; assay type: cell membranes; conditions: Membrane

Row | SMILES | ED50 [1] [mg/kg] | LAD [2] | ED50 [3] [mg/kg] | IC50 [4] [nM] | ED50 [5] [nM] | inhibition [6] [%]
1 | O=C1NCN(c2ccccc2)C12CCN(CCCN(c1ccccc1)c1ccc(F)cc1)CC2 | 11.7 | 30 mg/kg | 156 | – | – | –
2 | O=C1NCN(c2ccccc2)C12CCN(CCCCN(c1ccc(F)cc1)c1ccc(F)cc1)CC2 | – | >100 mg/kg | – | – | – | –
3 | COc1ccccc1N1CCN(CCCN(c2ccc(F)cc2)c2ccc(F)cc2)CC1 | 5.5 | 30 mg/kg | 160 | 13 | – | –
4 | Oc1nc2ccccc2n1C1=CCN(CCCN(c2ccc(F)cc2)c2ccc(F)cc2)CC1 | 5.55 | 30 mg/kg | 105 | – | 0.32 | –
5 | CN1CCN(C2=Nc3cc(Cl)ccc3Nc3ccccc32)CC1 [CLOZAPINE] | 14.3 | 10 mg/kg | 133 | – | – | –
6 | Oc1nc2ccccc2n1C1CCN(CCCN(c2ccccc2)c2ccccc2)CC1 | 13.2 | 30 mg/kg | – | – | – | –
7 | O=C1NCN(c2ccccc2)C12CCN(CCCN(c1ccc(F)cc1)c1cccc(Cl)c1)CC2 | 12.7 | 30 mg/kg | 289 | – | – | –
8 | O=C(c1ccc(Cl)cc1)C1CCN(CCCN(c2ccc(F)cc2)c2ccc(F)cc2)CC1 | – | >100 mg/kg | – | – | – | –
9 | Fc1ccc(N(CCCN2CCN(c3ccccc3)CC2)c2ccc(F)cc2)cc1 | – | 100 mg/kg | – | – | – | –
10 | OC1(c2ccc(Cl)cc2)CCN(CCCN(c2ccc(F)cc2)c2ccc(F)cc2)CC1 | 4.42 | 30 mg/kg | – | – | – | –
11 | Oc1nc2ccccc2n1C1CCN(CCCN(c2ccccc2)c2cccc(Cl)c2)CC1 | – | >100 mg/kg | – | – | – | –
12 | Oc1nc2ccccc2n1C1CCN(CCCN(c2ccccc2)c2ccc(F)cc2)CC1 | 8.37 | 30 mg/kg | 76 | – | – | 84
13 | OCCN1CCN(CCCN(c2ccc(F)cc2)c2ccc(F)cc2)CC1 | – | >100 mg/kg | – | – | – | –
14 | Oc1nc2cc(Cl)ccc2n1C1CCN(CCCN(c2ccc(F)cc2)c2ccc(F)cc2)CC1 | – | >100 mg/kg | – | – | – | –
15 | O=[N+]([O-])c1ccc(N(CCCN2CCC(n3c(O)nc4ccccc43)CC2)c2ccccc2)cc1 | – | 100 mg/kg | – | – | – | 17
16 | Oc1nc2ccccc2n1C1CCN(CCCN(c2ccc(F)cc2)c2ccccc2F)CC1 | 11.3 | 30 mg/kg | 156 | – | – | 92
17 | O=C1NCN(c2ccccc2)C12CCN(CCN(c1ccc(F)cc1)c1ccc(F)cc1)CC2 | – | 100 mg/kg | – | – | – | –
18 | Oc1nc2cc(Cl)c(Cl)cc2n1C1CCN(CCCN(c2ccc(F)cc2)c2ccc(F)cc2)CC1 | – | >100 mg/kg | – | – | – | –
19 | O=c1[nH]c2ccccc2n1C1CCN(CCCC(c2ccc(F)cc2)c2ccc(F)cc2)CC1 [PIMOZIDE] | – | <10 mg/kg and 30 mg/kg | – | – | – | –
20 | Fc1ccc(N(CCCN2CCC(n3c(S)nc4ccccc43)CC2)c2ccc(F)cc2)cc1 | – | >100 mg/kg | – | – | – | –
21 | O=C1NCN(c2ccccc2)C12CCN(CCCC(c1ccc(F)cc1)c1ccc(F)cc1)CC2 | 1.28 | <10 mg/kg | 10.8 | – | – | –
22 | Cc1cc2nc(O)n(C3CCN(CCCN(c4ccc(F)cc4)c4ccc(F)cc4)CC3)c2cc1C | > 16 | 30 mg/kg | – | – | – | –
23 | O=C1NCN(c2ccccc2)C12CCN(CCCN(c1ccc(F)cc1)c1ccc(F)cc1)CC2 | 1.65 | 5 mg/kg | 81.2 | 0.61 | – | –
